Laboratory results published in patent US6699872B2, “N-substituted urea inhibitors of farnesyl-protein transferase” (Schering Corporation, priority 1997, dated 2004).

What was measured:
[1] = molecular target: T1, partially purified rat brain farnesyl protein transferase (FPT) (Rattus norvegicus, UniProt Q02293+Q04631); assay: In vitro enzyme assay: inhibition of Ras-CVLS farnesylation by FPT; format: biochemical
T1 construct: partially purified rat brain farnesyl protein transferase (FPT); from tissue; host or cells: rat brain

[2] = tested on: Ras processing in COS cells; assay: Cell-based assay: COS cells, inhibition of Ras processing
Description: 2. Cell-Based Assay. COS IC50 values refer to the COS cells activity inhibition of Ras processing, are determined by the methods disclosed in […] or WO 95/10516.

CCOC(=O)CNC(=O)N1CCC(CC(=O)N2CCC([C@H]3c4ncc(Br)cc4CCc4cc(Cl)cc(Br)c43)CC2)CC1 [Example 4]
IC50 [1]: 0.002 µM

O=C(CC1CCN(C(=O)NCCO)CC1)N1CCC([C@H]2c3ncc(Br)cc3CCc3cc(Cl)cc(Br)c32)CC1 [Example 11]
IC50 [1]: 0.0031 µM
IC50 [2]: 0.018 µM

CNC(=O)N1CCC(CC(=O)N2CCC([C@H]3c4ncc(Br)cc4CCc4cc(Cl)cc(Br)c43)CC2)CC1 [Example 3]
IC50 [1]: 0.0019 µM

O=C(CC1CCN(C(=O)N(CCO)CCO)CC1)N1CCC([C@H]2c3ncc(Br)cc3CCc3cc(Cl)cc(Br)c32)CC1 [Example 7]
IC50 [1]: 0.0038 µM
IC50 [2]: 0.018 µM

NC(=O)[C@H](CO)NC(=O)N1CCC(CC(=O)N2CCC([C@H]3c4ncc(Br)cc4CCc4cc(Cl)cc(Br)c43)CC2)CC1 [Example 10]
IC50 [1]: 0.0046 µM
IC50 [2]: 0.3 µM

CCCNC(=O)N1CCC(CC(=O)N2CCN(C3c4ccc(Cl)cc4CCc4cc(Br)cnc43)CC2)CC1 (stereo not shown) [Example 15, 4-[2-[4-(3-Bromo-8-chloro-6,11-dihydro-5H-benzo[5,6]cyclohepta[1,2-b]pyridin-11-yl)-1-piperazinyl]-2-oxoethyl]-N-propyl-1-piperidinecarboxamide]
IC50 [1]: 0.1 µM
IC50 [2]: 1.5 µM

COc1ccccc1NC(=O)N1CCC(CC(=O)N2CCC([C@H]3c4ncc(Br)cc4CCc4cc(Cl)cc(Br)c43)CC2)CC1 [Example 1]
IC50 [1]: 0.0051 µM
IC50 [2]: 0.05 µM

NC(=O)CNC(=O)N1CCC(CC(=O)N2CCC([C@H]3c4ncc(Br)cc4CCc4cc(Cl)cc(Br)c43)CC2)CC1 [Example 13]
IC50 [1]: 0.0009 µM
IC50 [2]: 0.025 µM

CC(C)(C)NC(=O)N1CCC(CC(=O)N2CCN(C3c4ccc(Cl)cc4CCc4cc(Br)cnc43)CC2)CC1 (stereo not shown) [Example 16, 4-[2-[4-(3-Bromo-8-chloro-6,11-dihydro-5H-benzo[5,6]cyclohepta[1,2-b]pyridin-11-yl)-1-piperazinyl]-2-oxoethyl]-N-(1,1-dimethylethyl)-1-piperidinecarboxamide]
IC50 [1]: 0.108 µM

O=C(CC1CCN(C(=O)Nc2ccccc2)CC1)N1CCC([C@H]2c3ncc(Br)cc3CCc3cc(Cl)cc(Br)c32)CC1 [Example 2]
IC50 [1]: 0.0054 µM
IC50 [2]: 0.033 µM

(+)-Methyl alpha(S)-[[[4-[2-[4-[(3,10-dibromo-8-chloro-6,11-dihydro-5H-benzo[5,6]cyclohepta[1,2-b]pyridin-11(R)-yl)-1-piperidinyl]-2-oxoethyl]-1-piperidinyl]carbonyl]amino]-beta-methylbutanoate [Example 5]
IC50 [1]: 0.005 µM
IC50 [2]: 0.15 µM

COC(=O)[C@H](COC(C)(C)C)NC(=O)N1CCC(CC(=O)N2CCC([C@H]3c4ncc(Br)cc4CCc4cc(Cl)cc(Br)c43)CC2)CC1 [Example 8]
IC50 [1]: 0.0087 µM
IC50 [2]: 0.12 µM

O=C(O)CNC(=O)N1CCC(CC(=O)N2CCC([C@H]3c4ncc(Br)cc4CCc4cc(Cl)cc(Br)c43)CC2)CC1 [Example 12]
IC50 [1]: 0.0008 µM

CNC(=O)N1CCC(CC(=O)N2CCN(C3c4ccc(Cl)cc4CCc4cc(Br)cnc43)CC2)CC1 (stereo not shown) [Example 14, 4-[2-[4-(3-Bromo-8-chloro-6,11-dihydro-5H-benzo[5,6]-cyclohepta[1,2-b]pyridin-11-yl)-1-piperazinyl]-2-oxoethyl]-N-methyl-1-piperidinecarboxamide]
IC50 [1]: 0.05 µM
IC50 [2]: 0.75 µM

CCOC(=O)N1CCC(NC(=O)N2CCC(CC(=O)N3CCC([C@H]4c5ncc(Br)cc5CCc5cc(Cl)cc(Br)c54)CC3)CC2)CC1 [Example 6]
IC50 [1]: 0.0017 µM
IC50 [2]: 0.02 µM

COC(=O)[C@H](CO)NC(=O)N1CCC(CC(=O)N2CCC([C@H]3c4ncc(Br)cc4CCc4cc(Cl)cc(Br)c43)CC2)CC1 [Example 9]
IC50 [1]: 0.0033 µM
IC50 [2]: 0.11 µM
